Laboratory results from patent publication US10125126B2, “N-cycloalkyl-N-[(heterocyclylphenyl)methylene]-(thio)carboxamide derivatives” (BAYER CROPSCIENCE AG, priority 2012, dated 2018).

Tests used:
Pyrenophora teres = assay: In vivo preventive test on Pyrenophora teres (barley); conditions: barley plants, 14 days after contamination
Procedure: In Vivo Preventive Test on Pyrenophora teres (Barley) […] Barley plants (“Plaisant” variety), sown in starter cups on a 50/50 peat soil pozzolana substrate and grown at 22° C., are treated at the 1 leaf stage (10 cm height) by spraying with the active ingredient prepared as described above. Plants, used as controls, are treated with the mixture of acetone/tween/DMSO/water not containing the active material. After 24 hours, the plants are contaminated by spraying the leaves with an aqueous suspension of Pyrenophora teres spores (12 000 spores per mL). The spores are collected from a 12-day-old culture. […] Grading (% of efficacy) is carried out 14 days after the contamination, in comparison with the control plants.

Septoria tritici = assay: In vivo preventive test on Septoria tritici (wheat); conditions: wheat plants, 24 days after contamination
Procedure: In Vivo Preventive Test on Septoria tritici (Wheat) […] Wheat plants (“Scipion” variety), sown in starter cups on a 50/50 peat soil pozzolana substrate and grown at 22° C., are treated at the 1 leaf stage (10 cm height) by spraying with the active ingredient prepared as described above. Plants, used as controls, are treated with the mixture of acetone/tween/DMSO/water not containing the active material. After 24 hours, the plants are contaminated by spraying the leaves with an aqueous suspension of cryopreserved Septoria tritici spores (500 000 spores per mL). The contaminated wheat plants are incubated for 72 hours at 18° C. and at 100% relative humidity, and then for 21 days at 90% relative humidity. Grading (% of efficacy) is carried out 24 days after the contamination, in comparison with the control plants.

Puccinia recondita = assay: In vivo preventive test on Puccinia recondita (brown rust on wheat); conditions: wheat plants, 12 days after contamination
Procedure: In Vivo Preventive Test on Puccinia recondita (Brown Rust on Wheat) […] Wheat plants (“Scipion” variety), sown in starter cups on a 50/50 peat soil pozzolana substrate and grown at 22° C., are treated at the 1 leaf stage (10 cm height) by spraying with the active ingredient prepared as described above. Plants, used as controls, are treated with the mixture of acetone/tween/DMSO/water not containing the active material. After 24 hours, the plants are contaminated by spraying the leaves with an aqueous suspension of Puccinia recondita spores (100 000 spores per mL). The spores are collected from an infected plant and are suspended in water containing 2.5 mL/L of Tween 80 at 10%. […] Grading (% of efficacy) is carried out 12 days after the contamination, in comparison with the control plants.

[1] = log P by HPLC on a reversed-phase column (C 18), EEC Directive 79/831 Annex V.A8; assay type: physicochemical; conditions: HPLC on reversed-phase column (C 18), 40° C., 0.1% aqueous formic acid and acetonitrile, linear gradient 10% to 90% acetonitrile
Summary of the method: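 Reversed-phase C18 HPLC at 40° C with a linear 10% to 90% acetonitrile gradient against 0.1% aqueous formic acid. Log P is read from retention time by linear interpolation between successive unbranched alkan-2-ones (C3–C16) of known log P. UV spectra from 200 to 400 nm, taken at chromatographic peak maxima, give lambda-max.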

Sphaerotheca fuliginea = assay: In vivo preventive test on Sphaerotheca fuliginea (powdery mildew on cucurbits); conditions: gherkin plants, 12 days after contamination
Procedure: In Vivo Preventive Test on Sphaerotheca fuliginea (Powdery Mildew on Cucurbits) […] Gherkin plants (“Vert petit de Paris” variety), sown in starter cups on a 50/50 peat soil-pozzolana substrate and grown at 24° C., are treated at the Z11 cotyledon stage by spraying with the active ingredient prepared as described above. Plants, used as controls, are treated with the mixture of acetone/tween/DMSO/water not containing the active material. After 24 hours, the plants are contaminated by spraying the cotyledons with an aqueous suspension of Sphaerotheca fuliginea spores (100 000 spores per mL). The spores are collected from infected plants. […] Grading (% of efficacy) is carried out 12 days after the contamination, in comparison with the control plants.

Uromyces appendiculatus = assay: In vivo preventive test on Uromyces appendiculatus (bean rust); conditions: bean plants, 11 days after contamination
Procedure: In Vivo Preventive Test on Uromyces appendiculatus (Bean Rust) […] Bean plants (“Saxa” variety), sown in starter cups on a 50/50 peat soil pozzolana substrate and grown at 24° C., are treated at the 2 leaf stage (9 cm height) by spraying with the active ingredient prepared as described above. Plants, used as controls, are treated with the mixture of acetone/tween/DMSO/water not containing the active material. After 24 hours, the plants are contaminated by spraying the leaves with an aqueous suspension of Uromyces appendiculatus spores (150 000 spores per mL). The spores are collected from infected plants and are suspended in water containing 2.5 mL/L of Tween 80 at 10%. […] Grading (% of efficacy) is carried out 11 days after the contamination, in comparison with the control plants.

Botrytis cinerea = assay: In vivo preventive test on Botrytis cinerea (grey mould); conditions: gherkin plants, 4 to 5 days after contamination
Procedure: In Vivo Preventive Test on Botrytis cinerea (Grey Mould) […] Gherkin plants (“Vert petit de Paris” variety), sown in starter cups on a 50/50 peat soil pozzolana substrate and grown at 24° C., are treated at the Z11 cotyledon stage by spraying with the active ingredient prepared as described above. Plants, used as controls, are treated with the mixture of acetone/tween/DMSO/water not containing the active material. After 24 hours, the plants are contaminated by spraying the cotyledons with an aqueous suspension of cryopreserved Botrytis cinerea spores (50 000 spores per mL). The spores are suspended in a nutrient solution composed of 10 g/L of PDB, 50 g/L of D-Fructose, 2 g/L of NH4NO3 and 1 g/L of KH2PO4. The contaminated gherkin plants are incubated at 17° C. and at 90% relative humidity. Grading (% of efficacy) is carried out 4 to 5 days after the contamination, in comparison with the control plants.

Row | Structure (SMILES) | Efficacy (Pyrenophora teres; 500 ppm of active ingredient) | Efficacy (Septoria tritici; 500 ppm of active ingredient) | Efficacy (Puccinia recondita; 500 ppm of active ingredient) | logP [1] | Efficacy (Sphaerotheca fuliginea; 500 ppm of active ingredient) | Efficacy (Pyrenophora teres; 100 ppm of active ingredient) | Efficacy (Septoria tritici; 100 ppm of active ingredient) | Efficacy (Puccinia recondita; 100 ppm of active ingredient) | Efficacy (Uromyces appendiculatus; 100 ppm of active ingredient) | Efficacy (Sphaerotheca fuliginea; 100 ppm of active ingredient) | Efficacy (Uromyces appendiculatus; 500 ppm of active ingredient) | Efficacy (Botrytis cinerea; 100 ppm of active ingredient) | Efficacy (Botrytis cinerea; 500 ppm of active ingredient)
1 | Cc1ccc(C2(C)CO2)c(CN(C(=O)c2c(C(F)F)nn(C)c2F)C2CC2)c1 (centres unmarked) [I.5] | 93% | 97% | 98% | 3.04 | 100% |  |  |  |  |  |  |  | 
2 | Cn1nc(C(F)F)c(C(=O)N(Cc2cc(F)ccc2C2(C)CO2)C2CC2)c1F (centres unmarked) [I.7] |  |  |  | 2.86 |  | 97% | 100% | 100% | 100% | 94% |  |  | 
3 | Cn1nc(C(F)F)c(C(=O)N(Cc2cc(F)ccc2-c2ccoc2)C2CC2)c1F [I.27] | 93% | 80% | 100% | 3.33 | 100% |  |  |  |  |  | 100% |  | 
4 | Cn1nc(C(F)F)c(C(=O)N(Cc2ccccc2-c2ccco2)C2CC2)c1F [I.32] |  |  |  | 3.31 |  |  |  | 88% | 74% |  |  | 94% | 
5 | Cn1cc(C(=O)N(Cc2cc(-c3ccco3)ccc2Cl)C2CC2)c(C(F)F)n1 [I.36] |  |  |  | 3.44 |  | 71% |  |  |  |  |  |  | 
6 | Cn1ccc(-c2ccc(F)cc2CN(C(=O)c2c(C(F)F)nn(C)c2F)C2CC2)c1 [I.47] | 71% |  |  | 3.37 | 94% |  |  |  |  |  |  |  | 
7 | Cn1ccc(-c2ccccc2CN(C(=O)c2c(C(F)F)nn(C)c2F)C2CC2)c1 [I.49] |  | 96% |  | 3.25 | 78% |  |  |  |  |  | 100% |  | 99%
8 | Cc1ccc(-c2cnn(C)c2)c(CN(C(=O)c2c(C(F)F)nn(C)c2Cl)C2CC2)c1 [I.57] |  |  |  | 2.71 |  | 79% |  |  |  |  |  |  | 
9 | Cn1nc(C(F)F)c(C(=O)N(Cc2cc(Cl)ccc2-c2ccsc2)C2CC2)c1F [I.66] |  |  | 94% | 3.99 | 95% |  |  |  |  |  | 100% |  | 91%
10 | Cn1nc(C(F)F)c(C(=S)N(Cc2ccccc2-c2cccs2)C2CC2)c1F [I.75] |  | 86% | 94% | 4.29 | 90% |  |  |  |  |  | 100% |  | 100%
11 | Cn1nc(C(F)F)c(C(=O)N(Cc2cc(-c3cccs3)ccc2Cl)C2CC2)c1F [I.83] |  |  |  | 4.06 |  | 86% |  | 75% | 80% | 98% |  |  | 
12 | Cn1cc(C(=O)N(Cc2cc(-c3ccsc3)ccc2Cl)C2CC2)c(C(F)F)n1 [I.93] |  |  |  | 3.59 |  | 88% | 86% |  |  |  |  |  | 
13 | Cn1nc(C(F)F)c(C(=O)N(Cc2cc(-c3ccsc3)ccc2Cl)C2CC2)c1F [I.95] |  |  |  | 3.96 |  | 88% |  |  |  | 98% |  |  | 
14 | Cc1nn(C)c(C)c1-c1ccccc1CN(C(=O)c1c(C(F)F)nn(C)c1F)C1CC1 [I.114] | 79% | 100% | 72% | 2.52 | 94% |  |  |  |  |  |  |  | 
15 | COc1ccsc1-c1ccc(Cl)cc1CN(C(=O)c1c(C(F)F)nn(C)c1F)C1CC1 [I.121] | 86% | 80% | 94% | 3.99 | 100% |  |  |  |  |  |  |  | 
16 | COc1ccsc1-c1cc(F)ccc1CN(C(=O)c1c(C(F)F)nn(C)c1F)C1CC1 [I.122] |  | 100% | 98% | 3.70 | 100% |  |  |  |  |  | 100% |  | 100%
17 | COc1ccsc1-c1cc(Cl)ccc1CN(C(=O)c1c(C(F)F)nn(C)c1F)C1CC1 [I.123] |  | 94% | 94% | 4.14 | 100% |  |  |  |  |  | 99% |  | 100%
18 | Cc1ccc(-c2coc3ccccc23)c(CN(C(=O)c2c(C(F)F)nn(C)c2F)C2CC2)c1 [I.134] |  |  |  | 4.32 |  | 71% | 79% |  | 77% | 90% |  |  | 
19 | Cn1cc(C(=O)N(Cc2cc(-c3ccc(Cl)s3)ccc2Cl)C2CC2)c(C(F)F)n1 [I.144] |  | 100% | 75% | 4.41 |  |  |  |  |  |  | 94% |  | 98%
20 | Cn1nc(C(F)F)c(C(=O)N(Cc2cc(-c3ccc(Cl)s3)ccc2Cl)C2CC2)c1Cl [I.145] |  | 94% | 88% | 5.06 |  |  |  |  |  |  | 100% | 100% | 
21 | Cn1nc(C(F)F)c(C(=O)N(Cc2ccc(F)cc2-c2csc3ccccc23)C2CC2)c1F [I.158] |  | 98% | 81% | 4.44 | 100% |  |  |  |  |  | 91% |  | 100%
